From US8029770B2 (Rutgers, The State University, priority 2003, dated 2011)
Entries after “also recorded” stand apart in the source; their conditions may differ. Where two headings read alike, the source gives them in different places. Marks after values point to notes of the source that are not given here.

How the values were obtained:
[1] = test system: apoptotic sunburn cells in the epidermis of C57/BL/6J p53(−/−) mice; assay: UVB-induced apoptotic sunburn cells in C57/BL/6J p53(−/−) mice, topical caffeine; assay type: in vivo, mouse
Experimental: The time course for apoptosis was determined by utilizing morphologically distinct sunburn cells as the marker for apoptosis. […] Accordingly, studies with a C57/BL/6J mouse were performed with a 60 mJ/cm^2 dose of UVB.
Measurement of apoptotic sunburn cells. Identification of apoptoic sunburn cells was based morphologically on cell shrinkage and nuclear condensation due to fragmentation of the cells. […] The percentage of apoptotic sunburn cells in the epidermis (basal plus suprabasal layers) was calculated from the number of these cells per 100 cells counted from the entire 20 mm length of epidermis for each skin section.

[2] = Weight of mouse during topical treatment of UVB-pretreated high risk SKH-1 mice; assay type: in vivo
Experimental: Female SKH-1 mice were treated with 30 mJ/cm^2 of UVB twice a week for 20 weeks.

phospho-Chk2 (Ser387) = assay: Epidermal phospho-Chk2 (Ser387) in UVB-treated mice, western blot; assay type: in vivo, mouse; details: topical immediately after UVB 30 mJ/cm2; 6 hours
cyclin B1 = assay: Epidermal cyclin B1 in UVB-treated mice, western blot and immunohistochemistry; assay type: in vivo, mouse
[3] = test system: UVB-induced skin lesions in SKH-1 mice; assay: Prevention of UVB-induced skin (sunburn) lesions, sunscreen effect; assay type: in vivo, mouse; details: 4.8% caffeine or 8.0% caffeine sodium benzoate (24 μmoles) in 100 mg DERMABASE 30 minutes before UVB 180 mJ/cm^2 on two consecutive days (FIG. 2)
Experimental: The areas (mm^2) and the intensity of red color in UVB-induced skin lesion were estimated semi-quantitatively 5 days after first UVB treatment. The lesion index were calculated as the lesion area multiplied by the arbitrary intensity: 0, no lesion; 1 barely detectable red lesion; 2 moderate red lesion, and 3, bright red lesion.
Outdoor occupational human exposure to UVB or a sunbathing exposure in the summer has been reported to range from 50-100 mJ/cm^2 per day (Larko, et al. (1983) Clin. Exp. Dermatol. 8:279-285; Diffey (1991) Phys. Med. Biol. 36:299-328).

[4] = test system: apoptotic sunburn cells in the epidermis of SKH-1 mice; assay: UVB-induced apoptotic sunburn cells in the epidermis of SKH-1 mice after topical application; assay type: in vivo, mouse
Experimental: Chemicals and Animals. […] Female SKH-1 hairless mice (6 to 7 weeks old) were purchased from the Charles River Breeding Laboratories, and the animals were kept in an animal facility for at least one week before use at 7 to 8 weeks of age. Mice were given water and PURINA® Laboratory CHOW® 5001 diet from Ralston-Purina (St. […] For the analysis conducted herein, 5 mice were used per group. Treatment of Mice with UVB. […] The radiation was further calibrated with a model IL-1700 research radiometer/photometer (International Light, Newburyport, Mass.). Measurement of apoptotic sunburn cells. Identification of apoptoic sunburn cells was based morphologically on cell shrinkage and nuclear condensation due to fragmentation of the cells. […] Six hours after UVB, the animals were sacrificed and apoptotic sunburn cells in the epidermis were determined morphologically. […] Six hours after UVB, the animals were sacrificed and apoptotic sunburn cells in the epidermis were determined morphologically. […] Acetone Formulation. […] Six hours after UVB, the animals were sacrificed and apoptotic sunburn cells in the epidermis were determined morphologically. […] […] Formulations. […] Six hours after UVB the animals were sacrificed and apoptotic sunburn cells in the epidermis were determined morphologically. […] Six hours after UVB the animals were sacrificed and apoptotic sunburn cells in the epidermis were determined morphologically.

[5] = test system: UVB-induced skin tumors in high risk SKH-1 mice

Structure (SMILES): Cn1c(=O)c2c(ncn2C)n(C)c1=O [Caffeine, caffeine]
- enhancement of UVB-induced increase in apoptotic sunburn cells ([1]; female p53(−/−), UVB 60 mJ/cm^2, 6 hours after UVB): 563%
- effect on apoptosis in non-UVB-treated epidermis ([1]; male p53(−/−), no UVB): no effect
- Weight of mouse ([2]; week 0, 1.2% CF in DERMABASE): 30.3 ± 0.5 g
- Weight of mouse ([2]; week 0, 3.6% CF in DERMABASE): 30.5 ± 0.6 g
- Weight of mouse ([2]; week 5, 1.2% CF in DERMABASE): 29.6 ± 0.5 g
- Weight of mouse ([2]; week 5, 3.6% CF in DERMABASE): 30.0 ± 0.5 g
- Weight of mouse ([2]; week 7, 1.2% CF in DERMABASE): 29.5 ± 0.5 g
- Weight of mouse ([2]; week 7, 3.6% CF in DERMABASE): 29.6 ± 0.5 g
- Weight of mouse ([2]; week 9, 1.2% CF in DERMABASE): 30.0 ± 0.4 g
- Weight of mouse ([2]; week 9, 3.6% CF in DERMABASE): 29.8 ± 0.5 g
- Weight of mouse ([2]; week 11, 1.2% CF in DERMABASE): 30.0 ± 0.5 g
- Weight of mouse ([2]; week 11, 3.6% CF in DERMABASE): 30.1 ± 0.5 g
- UVB-induced increase in the level of phospho-Chk2 (Ser387) (phospho-Chk2 (Ser387)): inhibited
- percent of cyclin B1 positive cells in the epidermis (cyclin B1; UVB-treated mice, frozen sections, immunohistochemical): substantially enhanced
- effect on cyclin B1 positive cells in the absence of UVB (cyclin B1; no UVB): little or no effect
- level of epidermal cyclin B1 vs UVB alone (cyclin B1; topical immediately after UVB 30 mJ/cm2, western blot): increased substantially
- formation of UVB-induced sunburn (skin) lesions [3]: inhibited the formation of sunburn lesions; also recorded: inhibited UVB-induced sunburn lesions
- Percent Sunburn Cells, UVB ([4]; 6.2 μmole (each) in 100 μL acetone:water (9:1) immediately after UVB 30 mJ/cm^2 and at 30 and 120 min, 6 h, mean ± S.E.): 0.64 ± 0.15%
- Percent Apoptotic Sunburn Cells ([4]; 6.2 μmole in 100 μL acetone right after UVB 30 mJ/cm^2 and at 30 and 120 min, 6 h after UVB, mean ± S.E.): 0.506 ± 0.013^a %
- Percent Sunburn Cells, UVB ([4]; 100 mg formulation (2.4% caffeine or 4.0% caffeine sodium benzoate, 12.4 μmole, in DERMABASE; or commercial product) immediately after UVB 30 mJ/cm^2, 6 h): 1.96 ± 0.20^a %
- Percent Sunburn Cells, UVB ([4]; 0.6% Caffeine in 100 mg DERMABASE immediately after UVB 30 mJ/cm^2, 6 h): 0.40 ± 0.18^a %
- Percent Sunburn Cells, UVB ([4]; 1.2% Caffeine in 100 mg DERMABASE immediately after UVB 30 mJ/cm^2, 6 h): 0.58 ± 0.12^a %
- Percent Sunburn Cells, UVB ([4]; 2.4% Caffeine in 100 mg DERMABASE immediately after UVB 30 mJ/cm^2, 6 h): 0.58 ± 0.14^a %
- Percent Sunburn Cells, UVB ([4]; 3.6% Caffeine in 100 mg DERMABASE immediately after UVB 30 mJ/cm^2, 6 h): 0.82 ± 0.10^a %
- Percent Sunburn Cells, UVB ([4]; 4.8% Caffeine in 100 mg DERMABASE immediately after UVB 30 mJ/cm^2, 6 h): 0.96 ± 0.13^a %
- enhancement of UVB-induced apoptosis in the epidermis, applied in DERMABASE ([4]; DERMABASE vehicle, equimolar amounts (Table 4)): more effective at enhancing UVB-induced apoptosis when applied to the skin in DERMABASE™ than when applied to the skin in acetone
- Percent Apoptotic Sunburn Cells ([4]; Exp-1, 6.2 μmole in acetone:water (9:1) x3 after UVB 30 mJ/cm^2, 6 h): 0.51 ± 0.01%
- Percent Apoptotic Sunburn Cells ([4]; Exp-2, 6.2 μmole in acetone:water (9:1) x3 after UVB 30 mJ/cm^2, 6 h): 0.48 ± 0.04%
- % Induction ([4]; Table 1, vs acetone group, 6.2 μmole x3 after UVB 30 mJ/cm^2, 6 h): 148%
- % Induction ([4]; Table 2, vs acetone, 6.2 μmole in acetone:water (9:1)): 205%
- % Induction ([4]; Table 3 Exp-1, 6.2 μmole): 155%
- % Induction ([4]; Table 3 Exp-2, 6.2 μmole): 129%
- % Induction ([4]; Table 4, 0.6% Caffeine in DERMABASE): 100%
- % Induction ([4]; Table 4, 1.2% Caffeine in DERMABASE): 190%
- % Induction ([4]; Table 4, 2.4% Caffeine in DERMABASE): 190%
- % Induction ([4]; Table 4, 3.6% Caffeine in DERMABASE): 270%
- % Induction ([4]; Table 5, vs DERMABASE, 100 mg formulation after UVB): 284%
- No. of large tumors (diameter > 5 mm) ([5]; week 0, 1.2% CF in DERMABASE): 0
- Tumor volume per mouse (all mice) (mm^3) ([5]; week 0, 1.2% CF in DERMABASE): 0 mm^3
- Tumor volume per tumor (mm^3) ([5]; week 0, 1.2% CF in DERMABASE): 0 mm^3
- Tumors per mouse ([5]; week 0, 1.2% CF in DERMABASE): 0
- No. of large tumors (diameter > 5 mm) ([5]; week 0, 3.6% CF in DERMABASE): 0
- Tumor volume per mouse (all mice) (mm^3) ([5]; week 0, 3.6% CF in DERMABASE): 0 mm^3
- Tumor volume per tumor (mm^3) ([5]; week 0, 3.6% CF in DERMABASE): 0 mm^3
- Tumors per mouse ([5]; week 0, 3.6% CF in DERMABASE): 0
- No. of large tumors (diameter > 5 mm) ([5]; week 5, 1.2% CF in DERMABASE): 0
- Tumor volume per mouse (all mice) (mm^3) ([5]; week 5, 1.2% CF in DERMABASE): 0.1 ± 0.0 mm^3
- Tumor volume per tumor (mm^3) ([5]; week 5, 1.2% CF in DERMABASE): 0.5 ± 0.0 mm^3
- Tumors per mouse ([5]; week 5, 1.2% CF in DERMABASE): 0.1 ± 0.1
- No. of large tumors (diameter > 5 mm) ([5]; week 5, 3.6% CF in DERMABASE): 0
- Tumor volume per mouse (all mice) (mm^3) ([5]; week 5, 3.6% CF in DERMABASE): 0.1 ± 0.0 mm^3
- Tumor volume per tumor (mm^3) ([5]; week 5, 3.6% CF in DERMABASE): 0.5 ± 0.0 mm^3
- Tumors per mouse ([5]; week 5, 3.6% CF in DERMABASE): 0.2 ± 0.1
- No. of large tumors (diameter > 5 mm) ([5]; week 7, 1.2% CF in DERMABASE): 0
- Tumor volume per mouse (all mice) (mm^3) ([5]; week 7, 1.2% CF in DERMABASE): 0.4 ± 0.2 mm^3
- Tumor volume per tumor (mm^3) ([5]; week 7, 1.2% CF in DERMABASE): 1.3 ± 0.5 mm^3
- Tumors per mouse ([5]; week 7, 1.2% CF in DERMABASE): 0.4 ± 0.1
- No. of large tumors (diameter > 5 mm) ([5]; week 7, 3.6% CF in DERMABASE): 0
- Tumor volume per mouse (all mice) (mm^3) ([5]; week 7, 3.6% CF in DERMABASE): 0.3 ± 0.1 mm^3
- Tumor volume per tumor (mm^3) ([5]; week 7, 3.6% CF in DERMABASE): 1.3 ± 0.7 mm^3
- Tumors per mouse ([5]; week 7, 3.6% CF in DERMABASE): 0.2 ± 0.1
- No. of large tumors (diameter > 5 mm) ([5]; week 9, 1.2% CF in DERMABASE): 0
- Tumor volume per mouse (all mice) (mm^3) ([5]; week 9, 1.2% CF in DERMABASE): 2.0 ± 1.0 mm^3
- Tumor volume per tumor (mm^3) ([5]; week 9, 1.2% CF in DERMABASE): 3.3 ± 1.5 mm^3
- Tumors per mouse ([5]; week 9, 1.2% CF in DERMABASE): 0.6 ± 0.2
- No. of large tumors (diameter > 5 mm) ([5]; week 9, 3.6% CF in DERMABASE): 0
- Tumor volume per mouse (all mice) (mm^3) ([5]; week 9, 3.6% CF in DERMABASE): 0.8 ± 0.5 mm^3
- Tumor volume per tumor (mm^3) ([5]; week 9, 3.6% CF in DERMABASE): 1.9 ± 1.1 mm^3
- Tumors per mouse ([5]; week 9, 3.6% CF in DERMABASE): 0.4 ± 0.1
- No. of large tumors (diameter > 5 mm) ([5]; week 11, 1.2% CF in DERMABASE): 0
- Tumor volume per mouse (all mice) (mm^3) ([5]; week 11, 1.2% CF in DERMABASE): 3.7 ± 1.4 mm^3
- Tumor volume per tumor (mm^3) ([5]; week 11, 1.2% CF in DERMABASE): 3.5 ± 1.0 mm^3
- Tumors per mouse ([5]; week 11, 1.2% CF in DERMABASE): 1.1 ± 0.3
- No. of large tumors (diameter > 5 mm) ([5]; week 11, 3.6% CF in DERMABASE): 0
- Tumor volume per mouse (all mice) (mm^3) ([5]; week 11, 3.6% CF in DERMABASE): 1.6 ± 0.6 mm^3
- Tumor volume per tumor (mm^3) ([5]; week 11, 3.6% CF in DERMABASE): 1.3 ± 0.4 mm^3
- Tumors per mouse ([5]; week 11, 3.6% CF in DERMABASE): 1.2 ± 0.3
